Values of other authors, collected in patent publication US20160088844A1 (priority 2013, published 2016).

System: roots of plants; seeds of a variety of species
Details: in vivo

For Cn1c(=O)c2c(ncn2C)n(C)c1=O [caffeine], which “mitosis in the roots of plants” value is on record?
Its value is “inhibit mitosis”.

And the “seed germination in a variety of species” value?
Its value is “inhibit seed germination”.
